The target of data set [1] is T1, tau protein (Homo sapiens, UniProt P10636, A469T).
T1 construct: cultured human differentiated frontotemporal lobar dementia (FTD) neurons; endogenous in cells; host or cells: human differentiated FTD neurons, tau-A152T (line 19-5-RC6)
Kind of data set: Tau degradation assay (western blot) in human tau-A152T neurons. In kind it is cell-based. As to the method:
Example compounds 1-12 were evaluated for their ability to degrade tau protein in cultured human differentiated frontotemporal lobar dementia (FTD) neurons. […] For each condition, 1 well of differentiated neuronal cells (6 well-plate) was washed and collected in PBS, pelleted and lysed in RIPA buffer (Boston Bio-Products) with 2% SDS (Sigma), protease inhibitors (Roche Complete Mini tablets), and phosphatase inhibitors (Sigma), followed by sonication in a water sonicator (Bransonic Ultrasonic Baths, Thomas Scientific) for 5 min, and centrifugation at 20,000 g for 15 min. Supernatants were transferred to new tubes, total protein concentration was quantified with the Pierce BCA Protein Assay Kit (Thermo), and SDS-PAGE gels were loaded with 10 μg total protein per well (pre-boiled samples). Western blots were performed with the Novex NuPAGE SDS-PAGE Gel System (Invitrogen). All samples were resolved in 7% Tris-Acetate gels with Tris-Acetate running buffer (Invitrogen). Blots were probed with antibodies against total tau (TAU5) and phosphosrylated tau (Ser396), along with β-actin as a loading control; followed by corresponding HRP-linked secondary antibodies (Cell Signaling Technology), and SuperSignal West Pico Chemiluminescent Substrate (Thermo) detection. Membranes were exposed to autoradiographic film (LabScientific) and films were scanned using an Epson Perfection V800 Photo Scanner. Protein band intensities (pixel mean intensity) were quantified using Adobe Photoshop CS5 Histogram function. Whereas the vehicle alone (DMSO) had no effect on tau, varying degrading activity was observed amongst the compounds, however with overall similar relative levels of degrading activity between tau-A152T neurons and tau-P301L neurons. Compounds were added at the doses indicated of either 0.1, 1, 5, or 10 μM.
(§1) Four-week differentiated neurons, both non-mutant (8330-8) and tau-A152T (19-5-RC6) were employed. The neurons were treated with T807 for 24 hours (at 10 μg/mL=59.4 μM). One well of differentiated neuronal cells (6 well-plate, treated or untreated) was washed and collected in PBS, pelleted and directly lysed in 200 μL of Sample Buffer (New England Biolabs) supplemented with 3X DTT, boiled for 15 min and 10 μL of each lysate was run by SDS-PAGE in a 4-12% Bis-Tris Gel, with MOPS running buffer. Blots were probed with antibodies to total tau (DA9) and phosphorylated tau (Ser396, PHF1, AT8) along with GAPDH as a loading control.
Example compounds 2-5 were reevaluated for their ability to degrade tau protein in human FTD neurons as well as evaluate their effect on E3 ubiquitin ligases CRBN, VHL, and CHIP (FIG. 4A-E). For each control and treatment, 1 well of differentiated neuronal cells (6 well-plate) was washed and collected in PBS, pelleted and lysed in RIPA buffer (Boston Bio-Products) with 2% SDS (Sigma), protease inhibitors (Roche Complete Mini tablets), and phosphatase inhibitors (Sigma), followed by sonication in a water sonicator (Bransonic Ultrasonic Baths, Thomas Scientific) for 5 min, and centrifugation at 20,000 g for 15 min. Supernatants were transferred to new tubes, total protein concentration was quantified with the Pierce BCA Protein Assay Kit (Thermo), and SDS-PAGE gels were loaded with 10 μg total protein per well (pre-boiled samples). […] Protein band intensities (pixel mean intensity) were quantified using Adobe Photoshop CS5 Histogram function. […]
Background: A western blot detects proteins with antibodies after separation by electrophoresis.

The target of data set [2] is T2, tau protein (Homo sapiens, UniProt P10636, P618L).
T2 construct: cultured human differentiated frontotemporal lobar dementia (FTD) neurons; endogenous in cells; host or cells: human differentiated FTD neurons, tau-P301L
T2 sequence (P10636 1-441 isoform P10636-8 P301L): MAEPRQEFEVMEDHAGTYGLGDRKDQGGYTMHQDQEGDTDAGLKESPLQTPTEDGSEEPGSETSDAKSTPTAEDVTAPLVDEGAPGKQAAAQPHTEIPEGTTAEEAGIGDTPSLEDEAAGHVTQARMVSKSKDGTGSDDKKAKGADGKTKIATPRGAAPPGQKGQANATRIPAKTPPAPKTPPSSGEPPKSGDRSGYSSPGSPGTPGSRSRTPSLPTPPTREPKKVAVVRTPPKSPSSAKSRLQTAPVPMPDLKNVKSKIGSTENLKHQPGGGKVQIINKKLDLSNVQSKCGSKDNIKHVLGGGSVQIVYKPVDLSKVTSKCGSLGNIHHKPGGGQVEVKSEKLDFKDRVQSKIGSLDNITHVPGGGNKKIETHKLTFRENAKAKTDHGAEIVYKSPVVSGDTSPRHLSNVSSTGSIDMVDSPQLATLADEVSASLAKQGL
Kind of data set: Tau degradation assay (western blot) in human tau-P301L neurons. In kind it is cell-based. As to the method: Example compounds 1-12 were evaluated for their ability to degrade tau protein in cultured human differentiated frontotemporal lobar dementia (FTD) neurons. […] For each condition, 1 well of differentiated neuronal cells (6 well-plate) was washed and collected in PBS, pelleted and lysed in RIPA buffer (Boston Bio-Products) with 2% SDS (Sigma), protease inhibitors (Roche Complete Mini tablets), and phosphatase inhibitors (Sigma), followed by sonication in a water sonicator (Bransonic Ultrasonic Baths, Thomas Scientific) for 5 min, and centrifugation at 20,000 g for 15 min. Supernatants were transferred to new tubes, total protein concentration was quantified with the Pierce BCA Protein Assay Kit (Thermo), and SDS-PAGE gels were loaded with 10 μg total protein per well (pre-boiled samples). Western blots were performed with the Novex NuPAGE SDS-PAGE Gel System (Invitrogen). […] Protein band intensities (pixel mean intensity) were quantified using Adobe Photoshop CS5 Histogram function. […]
Example compounds 2-5 were reevaluated for their ability to degrade tau protein in human FTD neurons as well as evaluate their effect on E3 ubiquitin ligases CRBN, VHL, and CHIP (FIG. 4A-E). […] Supernatants were transferred to new tubes, total protein concentration was quantified with the Pierce BCA Protein Assay Kit (Thermo), and SDS-PAGE gels were loaded with 10 μg total protein per well (pre-boiled samples). […]

The target in data set [3] is T3, tau protein (Homo sapiens, UniProt P10636).
T3 construct: Four-week differentiated neurons, both non-mutant (8330-8) and tau-A152T (19-5-RC6) were employed; endogenous in cells; host or cells: human differentiated non-mutant control neurons (8330-8, 8330-8-RC1, CTR2-L17-RC2)
T3 sequence (P10636 1-441 isoform P10636-8): as the sequence (P10636 1-441 isoform P10636-8 P301L) above, with L301P counted along it
Kind of data set: Tau degradation assay (western blot) in non-mutant control human neurons. It is filed as cell-based. As to the method:
as §1
Example compounds 2-5 were again evaluated in tau degradation assays in non-mutant control, A152T and P301L neurons (6-week differentiated). Non-mutant neurons were employed as a negative control since derivatives of T807 should not recognize non-disease states of tau based upon how the series was identified, using selection for binding to pathological forms of tau in post-mortem brain lysates and tissue slices. […] Supernatants were transferred to new tubes, total protein concentration was quantified with the Pierce BCA Protein Assay Kit (Thermo), and SDS-PAGE gels were loaded with 10 μg total protein per well (pre-boiled samples). […] Protein band intensities (pixel mean intensity) were quantified using Adobe Photoshop CS5 Histogram function. […]

Data set [4] deals with A152T neurons.
For data set [5], the system named is A152T neurons. Nature of the data set: Neuronal viability / rescue of stress vulnerability to β-amyloid (1-42) peptide. Conditions: A152T neurons differentiated 8 weeks; compound alone; FIG. 7.

“Also recorded” adds a separate entry of the source. Like-named read-outs stand apart in the source and are kept apart here.

T1 sequence (P10636 1-441 isoform P10636-8 A152T): as the sequence (P10636 1-441 isoform P10636-8 P301L) above, with A152T, L301P counted along it

`Fc1ccc(-c2ccc3c(c2)[nH]c2ccncc23)cn1` [Compound T807]: the “effect on total tau and phospho-tau (S396) levels” value at tau protein [1] (A152T neurons, 6-week differentiated, 1 μM, FIG. 5) is listed as “no effect”; at tau protein [2] (P301L neurons, 6-week differentiated, 1 μM, FIG. 5), “no effect”; at tau protein [3] (non-mutant control neurons, 6-week differentiated, 1 μM, FIG. 5), “no effect”. For the same compound, the “effect on total tau and phosphorylated tau levels” value is “No significant tau lowering activity; also recorded: no effect on tau levels and did not degrade tau” on tau protein [1] (tau-A152T (19-5-RC6) neurons, four-week differentiated, 24 h at 10 μg/mL=59.4 μM, FIG. 3); “No significant tau lowering activity; also recorded: no effect on tau levels and did not degrade tau” on tau protein [3] (non-mutant (8330-8) neurons, four-week differentiated, 24 h at 10 μg/mL=59.4 μM, FIG. 3).
As to `Nc1cccc2c1CN(C1CCC(=O)NC1=O)C2=O` (stereo not shown) [Lenalidomide], the “effect on total tau and hyperphosphorylated tau levels” value was “no effect on tau levels” on tau protein [1] (tau-A152T neurons, 5-week differentiated, 24 h treatment, 0.1, 1, 5 or 10 μM (lenalidomide 1 or 10 μM), TAU5, pSer396) and “no effect on tau levels” on tau protein [2] (tau-P301L neurons, 8-week differentiated, 24 h treatment, 0.1, 1, 5 or 10 μM (lenalidomide 1 or 10 μM), TAU5, pSer396).
With “N-(17-(2-((2-(2,6-dioxopiperidin-3-yl)-1,3-dioxoisoindolin-4-yl)amino)-3,6,9,12,15-pentaoxaheptadecyl)-3-(5H-pyrido[4,3-b]indol-7-yl)propanamide [Compound 5]”, the “effect on neuronal viability” value in the data set on A152T neurons [4] is “no effect on neuronal viability”.
Consider `O=C(CCc1ccc2c(c1)[nH]c1ccncc12)NCCOCCNc1cccc2c1C(=O)N(C1CCC(=O)NC1=O)C2=O` (stereo not shown) [Compound 2, N-(2-(2-((2-(2,6-dioxopiperidin-3-yl)-1,3-dioxoisoindolin-4-yl)amino)ethoxy)ethyl)-3-(5H-pyrido[4,3-b]indol-7-yl)propanamide], for which the “dose-dependency of effect on tau” value on tau protein [1] (6-week differentiated A152T neurons, treatment for 24 hours, FIG. 6) is “dose dependent effect on tau”. Further, in the data set on A152T neurons [5], the “effect on neuronal viability” value is reported as “no effect on neuronal viability”.

Values taken from patent US12622901B2, “Compounds for tau protein degradation” (Dana-Farber Cancer Institute, Inc., priority 2017, dated 2026).
